Experimental data reported in US11135234B2, “Effective aminoglycoside antibiotic for multidrug-resistant bacteria” (MICROBIAL CHEMISTRY RESEARCH FOUNDATION, priority 2015, dated 2021).
Values after ≈ are worked out from the molar mass of the structure shown.

Assays:
S. aureus RN4220 = assay: MIC, agar plate dilution method, S. aureus RN4220; assay type: cell-based, Staphylococcus aureus; conditions: for minimal inhibitory concentration (MIC): S. aureus RN4220, Sensitive bacterium; for MIC: Staphylococcus aureus, RN4220, S. aureus RN4220, Sensitive bacterium, read-out: minimal inhibitory concentration (MIC)
Method: (§1) As for the representative compounds of a new aminoglycoside antibiotic of the present invention described in Examples, the minimal inhibitory concentration (MIC, μg/mL) was measured for various assay strains of bacteria using an agar plate dilution method in accordance with the method described in the Japan Society of Chemotherapy.

S. aureus RN4220/pMS520 = assay: MIC, agar plate dilution method, S. aureus RN4220/pMS520; assay type: cell-based, Staphylococcus aureus; conditions: for minimal inhibitory concentration (MIC): S. aureus RN4220/pMS520, MRSA; for MIC: Staphylococcus aureus, MRSA, read-out: minimal inhibitory concentration (MIC), S. aureus RN4220/pMS520, MRSA
Method: as §1

S. aureus MF490 = assay: MIC, agar plate dilution method, S. aureus MF490; assay type: cell-based, Staphylococcus aureus; conditions: for minimal inhibitory concentration (MIC): S. aureus MF490, MRSA; for MIC: Staphylococcus aureus, MRSA, read-out: minimal inhibitory concentration (MIC)
Method: as §1

E. faecium ATCC19434 = assay: MIC, agar plate dilution method, E. faecium ATCC19434; assay type: cell-based, Enterococcus faecium; conditions: for minimal inhibitory concentration (MIC): E. faecium ATCC19434; for MIC: Enterococcus faecium, ATCC19434, E. faecium ATCC19434, read-out: minimal inhibitory concentration (MIC)
Method: as §1

E. coli JM109/pMW218 = assay: MIC, agar plate dilution method, E. coli JM109/pMW218; assay type: cell-based, Escherichia coli; conditions: for minimal inhibitory concentration (MIC): E. coli JM109/pMW218, Sensitive bacterium; for MIC: Escherichia coli, JM109/PMW218, E. coli JM109/pMW218, Sensitive bacterium, read-out: minimal inhibitory concentration (MIC)
Method: as §1

[1] = tested on: K. pneumoniae ATCC BAA-1705; assay: MIC, agar plate dilution method, K. pneumoniae ATCC BAA-1705; assay type: cell-based, Klebsiella pneumoniae; conditions: for minimal inhibitory concentration (MIC): K. pneumoniae ATCC BAA-1705, KPC-producing strain; for MIC: Klebsiella pneumoniae, ATCCBAA1705, K. pneumoniae ATCC BAA-1705, KPC-producing strain, read-out: minimal inhibitory concentration (MIC)
Method: as §1

[2] = tested on: K. pneumoniae ATCC BAA-2146; assay: MIC, agar plate dilution method, K. pneumoniae ATCC BAA-2146; assay type: cell-based, Klebsiella pneumoniae; conditions: for minimal inhibitory concentration (MIC): K. pneumoniae ATCC BAA-2146, NDM-producing strain; for MIC: Klebsiella pneumoniae, ATCCBAA2146, K. pneumoniae ATCC BAA-2146, NDM-producing strain, read-out: minimal inhibitory concentration (MIC)
Method: as §1

[3] = tested on: A. baumannii ATCC BAA-1710; assay: MIC, agar plate dilution method, A. baumannii ATCC BAA-1710; assay type: cell-based, Acinetobacter baumannii; conditions: for minimal inhibitory concentration (MIC): A. baumannii ATCC BAA-1710, MDRA; for MIC: Acinetobacter baumannii, ATCCBAA1710, A. baumannii ATCC BAA-1710, MDRA, read-out: minimal inhibitory concentration (MIC)
Method: as §1

S. marcescens TH-0447 = assay: MIC, agar plate dilution method, S. marcescens TH-0447; assay type: cell-based, Serratia marcescens; conditions: for minimal inhibitory concentration (MIC): S. marcescens TH-0447, AMK-resistant; for MIC: Serratia marcescens, TH0447, S. marcescens TH-0447, AMK-resistant, read-out: minimal inhibitory concentration (MIC)
Method: as §1

S. marcescens GN6944 = assay: MIC, agar plate dilution method, S. marcescens GN6944; assay type: cell-based, Serratia marcescens; conditions: S. marcescens GN6944, GM-resistant; for MIC: Serratia marcescens, read-out: minimal inhibitory concentration (MIC)
Method: as §1

P. aeruginosa PAO1 = assay: MIC, agar plate dilution method, P. aeruginosa PAO1; assay type: cell-based, Pseudomonas aeruginosa; conditions: for minimal inhibitory concentration (MIC): P. aeruginosa PAO1, Sensitive bacterium; for MIC: Pseudomonas aeruginosa, PAO1, P. aeruginosa PAO1, Sensitive bacterium, read-out: minimal inhibitory concentration (MIC)
Method: as §1

P. aeruginosa PAO1/GN315 = assay: MIC, agar plate dilution method, P. aeruginosa PAO1/GN315; assay type: cell-based, Pseudomonas aeruginosa; conditions: for minimal inhibitory concentration (MIC): P. aeruginosa PAO1/GN315, AMK-resistant; for MIC: Pseudomonas aeruginosa, read-out: minimal inhibitory concentration (MIC), P. aeruginosa PAO1/GN315, AMK-resistant
Method: as §1

P. aeruginosa MSC17707 = assay: MIC, agar plate dilution method, P. aeruginosa MSC17707; assay type: cell-based, Pseudomonas aeruginosa; conditions: for minimal inhibitory concentration (MIC): P. aeruginosa MSC17707, AMK-resistant; for MIC: Pseudomonas aeruginosa, MSC17707, P. aeruginosa MSC17707, AMK-resistant, read-out: minimal inhibitory concentration (MIC)
Method: as §1

P. aeruginosa MSC01035 = assay: MIC, agar plate dilution method, P. aeruginosa MSC01035; assay type: cell-based, Pseudomonas aeruginosa; conditions: P. aeruginosa MSC01035, ABK-resistant; for MIC: Pseudomonas aeruginosa, read-out: minimal inhibitory concentration (MIC)
Method: as §1

| SMILES | minimal inhibitory concentration (MIC) (S. aureus RN4220) | minimal inhibitory concentration (MIC) (S. aureus RN4220/pMS520) | minimal inhibitory concentration (MIC) (S. aureus MF490) | minimal inhibitory concentration (MIC) (E. faecium ATCC19434) | minimal inhibitory concentration (MIC) (E. coli JM109/pMW218) | minimal inhibitory concentration (MIC) [1] | MIC (S. aureus RN4220) | MIC (S. aureus RN4220/pMS520) | MIC (S. aureus MF490) | MIC (E. faecium ATCC19434) | MIC (E. coli JM109/pMW218) | MIC [1] | MIC [2] | MIC [3] | MIC (S. marcescens TH-0447) | MIC (S. marcescens GN6944) | MIC (P. aeruginosa PAO1) | MIC (P. aeruginosa PAO1/GN315) | MIC (P. aeruginosa MSC17707) | MIC (P. aeruginosa MSC01035) | also measured |
| --- | --- | --- | --- | --- | --- | --- | --- | --- | --- | --- | --- | --- | --- | --- | --- | --- | --- | --- | --- | --- | --- |
| CNC1C(CO)OC(OC2OC3CC(N)C(OC4C(N)CC(N)C(O)C4O)OC3C(O)C2NC)C(O)C1O (stereo not shown) [Compound A4-a, 4″-N-methylapramycin] | 4 µg/mL (≈ 7.23 µM) | 4 µg/mL (≈ 7.23 µM) | 16 µg/mL (≈ 28.9 µM) | 32 µg/mL (≈ 57.8 µM) | 2 µg/mL (≈ 3.61 µM) | 2 µg/mL (≈ 3.61 µM) | – | – | – | – | – | – | – | – | – | – | – | – | – | – | minimal inhibitory concentration (MIC) [2]: 2 µg/mL (≈ 3.61 µM); minimal inhibitory concentration (MIC) [3]: 16 µg/mL (≈ 28.9 µM); minimal inhibitory concentration (MIC) (S. marcescens TH-0447): 8 µg/mL (≈ 14.5 µM); minimal inhibitory concentration (MIC) (S. marcescens GN6944): 8 µg/mL (≈ 14.5 µM); minimal inhibitory concentration (MIC) (P. aeruginosa PAO1): 8 µg/mL (≈ 14.5 µM); minimal inhibitory concentration (MIC) (P. aeruginosa PAO1/GN315): 8 µg/mL (≈ 14.5 µM); minimal inhibitory concentration (MIC) (P. aeruginosa MSC17707): 8 µg/mL (≈ 14.5 µM); minimal inhibitory concentration (MIC) (P. aeruginosa MSC01035): 8 µg/mL (≈ 14.5 µM) |
| CNC1C(O[C@H]2OC(CO)[C@@H](NCCCN)[C@H](O)C2O)O[C@H]2CC(N)[C@@H](O[C@@H]3C(N)C[C@@H](N)C(O)[C@H]3O)OC2C1O (stereo partly shown) [Compound A4-b, 4″-N-(3-aminopropyl)apramycin] | – | – | – | – | – | – | 4 µg/mL (≈ 6.7 µM) | 4 µg/mL (≈ 6.7 µM) | 8 µg/mL (≈ 13.4 µM) | 16 µg/mL (≈ 26.8 µM) | 2 µg/mL (≈ 3.35 µM) | 2 µg/mL (≈ 3.35 µM) | 2 µg/mL (≈ 3.35 µM) | 8 µg/mL (≈ 13.4 µM) | 8 µg/mL (≈ 13.4 µM) | 8 µg/mL (≈ 13.4 µM) | 4 µg/mL (≈ 6.7 µM) | 8 µg/mL (≈ 13.4 µM) | 8 µg/mL (≈ 13.4 µM) | 8 µg/mL (≈ 13.4 µM) | – |
| CNC1C(OC2OC(CO)C(NCC3(N)CCCC3)C(O)C2O)OC2CC(N)C(OC3C(N)CC(N)C(O)C3O)OC2C1O (stereo not shown) [Compound A4-c, 4″-N-((1-aminocyclopentyl)methyl)apramycin] | 4 µg/mL (≈ 6.28 µM) | 4 µg/mL (≈ 6.28 µM) | 16 µg/mL (≈ 25.1 µM) | 16 µg/mL (≈ 25.1 µM) | 1 µg/mL (≈ 1.57 µM) | 1 µg/mL (≈ 1.57 µM) | – | – | – | – | – | – | – | – | – | – | – | – | – | – | minimal inhibitory concentration (MIC) [2]: 1 µg/mL (≈ 1.57 µM); minimal inhibitory concentration (MIC) [3]: 32 µg/mL (≈ 50.3 µM); minimal inhibitory concentration (MIC) (S. marcescens TH-0447): 8 µg/mL (≈ 12.6 µM); minimal inhibitory concentration (MIC) (S. marcescens GN6944): 8 µg/mL (≈ 12.6 µM); minimal inhibitory concentration (MIC) (P. aeruginosa PAO1): 16 µg/mL (≈ 25.1 µM); minimal inhibitory concentration (MIC) (P. aeruginosa PAO1/GN315): 16 µg/mL (≈ 25.1 µM); minimal inhibitory concentration (MIC) (P. aeruginosa MSC17707): 32 µg/mL (≈ 50.3 µM); minimal inhibitory concentration (MIC) (P. aeruginosa MSC01035): 16 µg/mL (≈ 25.1 µM) |
| CNC1C(O[C@H]2OC(CO)[C@@H](NC(CN)CN)[C@H](O)C2O)O[C@H]2CC(N)[C@@H](O[C@@H]3C(N)C[C@@H](N)C(O)[C@H]3O)OC2C1O (stereo partly shown) [Compound A4-d, 4″-N-(1,3-diaminopropan-2-yl)apramycin] | – | – | – | – | – | – | 2 µg/mL (≈ 3.27 µM) | 2 µg/mL (≈ 3.27 µM) | 4 µg/mL (≈ 6.54 µM) | 8 µg/mL (≈ 13.1 µM) | 1 µg/mL (≈ 1.63 µM) | 2 µg/mL (≈ 3.27 µM) | 1 µg/mL (≈ 1.63 µM) | 4 µg/mL (≈ 6.54 µM) | 8 µg/mL (≈ 13.1 µM) | 4 µg/mL (≈ 6.54 µM) | 4 µg/mL (≈ 6.54 µM) | 4 µg/mL (≈ 6.54 µM) | 4 µg/mL (≈ 6.54 µM) | 8 µg/mL (≈ 13.1 µM) | – |
| CNC1C(O[C@H]2OC(CO)[C@@H](N(CCN)CCN)[C@H](O)C2O)O[C@H]2CC(N)[C@@H](O[C@@H]3C(N)C[C@@H](N)C(O)[C@H]3O)OC2C1O (stereo partly shown) [Compound A4-e, 4″-N,N-bis(2-aminoethyl)apramycin] | – | – | – | – | – | – | 2 µg/mL (≈ 3.2 µM) | 2 µg/mL (≈ 3.2 µM) | 4 µg/mL (≈ 6.39 µM) | 16 µg/mL (≈ 25.6 µM) | 1 µg/mL (≈ 1.6 µM) | 2 µg/mL (≈ 3.2 µM) | 2 µg/mL (≈ 3.2 µM) | 4 µg/mL (≈ 6.39 µM) | 8 µg/mL (≈ 12.8 µM) | 8 µg/mL (≈ 12.8 µM) | 4 µg/mL (≈ 6.39 µM) | 4 µg/mL (≈ 6.39 µM) | 8 µg/mL (≈ 12.8 µM) | 8 µg/mL (≈ 12.8 µM) | – |
